“Also recorded” adds a separate entry of the source. Some results are limits rather than exact numbers.

We go through one compound from patent US20230037862A1, “SYNTHETIC AGONISTS OF TLR4 RECEPTOR” (UNIVERSITÀ DEGLO STUDI DI MILANO - BICOCCA, priority 2017, published 2023).

The target in assay [1] is T1, purified human MD-2 receptor (Homo sapiens, UniProt Q9Y6Y9).
T1 sequence (Q9Y6Y9 19-160): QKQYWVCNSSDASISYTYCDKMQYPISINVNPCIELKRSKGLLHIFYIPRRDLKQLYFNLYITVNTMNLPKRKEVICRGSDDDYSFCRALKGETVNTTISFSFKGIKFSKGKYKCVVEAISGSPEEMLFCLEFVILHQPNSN
The assay can be described thus: MD-2-bound fluorescent molecule (bis-ANS) displacement assay. Format: binding. Particulars: MD-2 200 nM, bis-ANS 200 nM. Here is the method: therefore, TLR4 modulators that interact with MD-2 compete with compound bis-ANS, and are able to displace it from MD-2.
Fluorescence was measured on PerkinElmer fluorimeter LS 55 (PerkinElmer, UK) as previously described^[5].
All measurements were done at 20° C. in a 5×5 mm quartz glass cuvette (Hellma Suprasil, Müllheim, Germany). MD-2 protein (200 nM) and 1,1′-Bis(anilino)-4,4′-bis (naphtalene)-8,8′ disulfonate (bis-ANS, 200 nM) were mixed and incubated until reaching stable relative fluorescence units (RFUs) emitted at 420-550 nm under excitation at 385 nm.
Compounds, at different concentrations, were then added, followed by relative fluorescence unit (RFU) measurement at 420-550 nm.

Assay [2] has as its target T2, hTLR4 (Homo sapiens, UniProt O00206+Q9Y6Y9).
T2 construct: host or cells: HEK-Blue hTLR4 (HEK cells)
The experiment in a line: HEK-Blue hTLR4 SEAP reporter assay (NF-κB/AP-1 activation). Format: cell-based. The settings on record: HEK-Blue hTLR4 cells, 16-18 hours. The procedure: (§1) HEK-Blue™ hTLR4 (FIG. 1A) and HEK-Blue™ Null2 (FIG. 1B) cells were treated with the indicated concentrations of compounds FP11, FP111, and with LPS (100 ng/mL) and incubated for 16-18 hours. Results were normalized to stimulation with LPS alone, and are expressed as mean of percentage ±ES. of at least three independent experiments.
HEK-Blue™ hTLR4 cells were treated with increasing concentrations of compound FP11 and of LPS and incubated for 16-18 hours. Results were normalized to maximum activation of the reporter produced by LPS (FIG. 2A) and to maximum activation of the reporter produced by the compound itself (FIG. 2B). Data were fitted to a sigmoidal four-parameter logistic equation in order to determine IC50 values, and expressed as mean of percentage ±ES of at least three independent experiments.
HEK-Blue™ hTLR4 cells are HEK cells transfected so as to stably express human receptors hTLR4, hMD-2, and hCD14 for endotoxin recognition. In addition, said cells have a reporter gene encoding for a secreted alkaline phosphatase (SEAP) μlaced under the control of specific transcription factors (NF-κB and AP-1) activated by the TLR4 signaling pathway. Therefore, the presence of LPS or of an agonist of TLR4 causes receptor dimerization, activation of the signaling pathway and of transcription factors NF-κB and AP-1, and finally SEAP production and secretion into the culture medium. SEAP levels can be subsequently quantitated by incubating the medium with compound p-nitrophenylphosphate (pNPP) and monitoring with a spectrophotometer the formation of p-nitrophenol chromogenic product at 405 nm.
HEK-Blue™ hTLR4 cells (InvivoGen) were cultured according to manufacturer's instruction. […]
Cells were detached using a cell scraper, counted and seeded in a 96-well multiwell plate at a density of 4×10^4 cells per well. […]
The wells' optical density was determined using a microplate reader set at 405 nm.
The results were normalized with positive control (LPS alone) and expressed as a mean of percentage ±SEM of at least three independent experiments.
(Reporter assays use an easily measured gene product as a stand-in for the process of interest.)

In assay [3] the target is T1, purified human MD-2 receptor. The assay can be described thus: Biotinylated LPS displacement from MD-2 hydrophobic pocket (ELISA). Format: binding. The procedure:
The ability to displace LPS from MD-2 hydrophobic pocket was assessed by using an ELISA assay. Molecules FP11 and FP111 were added at increasing concentrations to MD-2 which had previously been incubated with biotinylated LPS.
The ability of the compounds to displace LPS from MD-2 hydrophobic pocket was determined by ELISA.
A microtiter plate was coated overnight at 4° C. with 100 μL/well of 5 μg/mL chicken polyclonal anti-MD-2 antibodies, diluted in 50 mM Na2CO3 buffer, pH 9.6, and blocked with 1% BSA in PBS. After washing, 1 μM MD-2 with biotin-labeled LPS was added and incubated for 2 h. After washing, the compounds were added at different concentrations and incubated for 1.5 h.
After washing, 0.5 μg/mL HRP-conjugated streptavidin (Sigma) in PBS was added, followed by detection at 420 nm after the addition of 100 μL of ABTS (Sigma). Chicken anti-MD-2 polyclonal antibodies were prepared against recombinant MD-2 by GenTel (Madison, Wis., USA),
A general note: In an ELISA, binding on a coated surface is turned into a signal by an enzyme label.

Assay [4] relates to HEK-Blue™ Null2 cells. The assay can be described thus: HEK-Blue Null2 counter-assay (SEAP reporter, no TLR4/MD-2/CD14). Format: cell-based. Particulars: 16-18 hours. Here is the method: as §1
In order to be certain that the agonist effect of compound FP11 be due to the interaction with the TLR4 receptor, the compounds were tested on the HEK-Blue™ Null2 cell line. Said line expresses the same reporter gene of HEK-Blue™ hTLR4 cells (SEAP), but has none of the receptors involved in endotoxin recognition (TLR4, MD-2, CD14).

T2 sequence (O00206 24-839): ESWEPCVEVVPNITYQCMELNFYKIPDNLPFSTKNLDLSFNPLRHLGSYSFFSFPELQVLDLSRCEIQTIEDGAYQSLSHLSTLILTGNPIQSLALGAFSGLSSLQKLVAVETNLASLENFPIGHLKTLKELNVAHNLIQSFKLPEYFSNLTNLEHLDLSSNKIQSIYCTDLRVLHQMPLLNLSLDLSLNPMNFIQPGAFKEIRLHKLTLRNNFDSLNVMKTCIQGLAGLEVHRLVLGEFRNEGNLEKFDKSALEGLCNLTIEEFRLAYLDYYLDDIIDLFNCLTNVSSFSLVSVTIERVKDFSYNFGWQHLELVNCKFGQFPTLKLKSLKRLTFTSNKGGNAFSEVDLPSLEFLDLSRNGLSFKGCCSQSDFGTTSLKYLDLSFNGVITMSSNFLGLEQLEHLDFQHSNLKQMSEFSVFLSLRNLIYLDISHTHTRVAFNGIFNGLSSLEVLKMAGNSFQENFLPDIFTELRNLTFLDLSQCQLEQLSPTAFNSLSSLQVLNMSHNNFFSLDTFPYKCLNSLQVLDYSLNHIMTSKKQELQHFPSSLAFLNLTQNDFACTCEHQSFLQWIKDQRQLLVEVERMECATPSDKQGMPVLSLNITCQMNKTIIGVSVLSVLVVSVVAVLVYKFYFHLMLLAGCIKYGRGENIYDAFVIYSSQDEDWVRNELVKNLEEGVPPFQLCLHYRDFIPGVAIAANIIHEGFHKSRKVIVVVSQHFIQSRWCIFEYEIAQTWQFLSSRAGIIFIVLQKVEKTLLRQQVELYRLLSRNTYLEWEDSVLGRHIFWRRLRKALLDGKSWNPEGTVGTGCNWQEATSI
T2 sequence (Q9Y6Y9 17-160 limits assumed): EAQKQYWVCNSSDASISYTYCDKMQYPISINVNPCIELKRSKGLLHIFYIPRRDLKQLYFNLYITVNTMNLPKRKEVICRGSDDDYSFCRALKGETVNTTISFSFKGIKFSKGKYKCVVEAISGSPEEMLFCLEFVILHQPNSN

Consider `CCCCCCCCCCCCCC(=O)NC1C(OC(=O)CCCCCCCCCCCCC)[C@H](OC(=O)CCCCCCCCCCCCC)C(CO)O[C@H]1OP(=O)(O)O` (stereo partly drawn) [FP11, 1-O-Phosphoryl-2-deoxy-4-O-tetradecanoyl 3-O-tetradecanoyl-2-tetradecanoylamino-α-D-glucopiranoside], for which the “decrease of bis-ANS fluorescence / inhibition of bis-ANS binding to MD-2” value in assay [1] is given as “concentration-dependent decrease of compound bis-ANS fluorescence; also recorded: inhibits the binding of bis-ANS to MD-2 in a dose-dependent manner”. The “concentrations at which activation of NF-κB and AP-1 is induced” value in assay [2] (SEAP reporter) is more than 5 µM. The same compound registered an EC50 in assay [2] (dose-response curve) of 12.3 µM. Also, the “displacement of biotinylated LPS from MD-2” value in assay [3] (160 μM) is on record as 55%. Besides, the “ability to displace biotinylated LPS from MD-2 hydrophobic pocket” value in assay [3] (increasing concentrations, highest 160 μM) is given as “displaces biotinylated LPS from MD-2 hydrophobic pocket in a dose-dependent manner”. In addition, the “activation of transcription factors NF-κB and AP-1 in cells without TLR4, MD-2, CD14” value in assay [4] is “unable to activate transcription factors NF-κB and AP-1”.

By EC50 is commonly meant the concentration that produces a half-maximal response. Low readings indicate higher potency in that assay, high ones lower potency in that assay.
